One compound from PubChem BioAssay AID651980 (The Scripps Research Institute Molecular Screening Center, 2013) can be followed below.

Each structure is given as a SMILES string. The source made the active and inactive calls. No rule for the calls is given here.

What all share (assay): PubChem AID 651980
The target of assay [1] is Protein phosphatase methylesterase 1 (Homo sapiens) (UniProt Q9Y570). To be noted: HEK293T in situ, ABPP-SILAC LC-MS/MS, NHU5 probe; PPME1; at 5 µM; hits give low values.
Sequence of Protein phosphatase methylesterase 1 (Homo sapiens) (Q9Y570 whole entry, looked up): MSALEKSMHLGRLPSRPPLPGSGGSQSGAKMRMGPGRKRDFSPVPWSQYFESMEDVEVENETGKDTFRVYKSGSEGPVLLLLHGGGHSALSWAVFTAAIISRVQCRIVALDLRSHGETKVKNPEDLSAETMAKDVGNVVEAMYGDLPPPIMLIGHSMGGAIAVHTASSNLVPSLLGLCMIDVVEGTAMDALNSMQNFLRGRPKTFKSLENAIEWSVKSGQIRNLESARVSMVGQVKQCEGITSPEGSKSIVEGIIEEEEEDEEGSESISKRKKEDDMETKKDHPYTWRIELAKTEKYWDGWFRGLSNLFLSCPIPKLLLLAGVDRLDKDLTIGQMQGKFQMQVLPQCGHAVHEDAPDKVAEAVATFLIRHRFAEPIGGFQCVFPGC
For a further assay, the system named is PREP. To be noted: HEK293T in situ, ABPP-SILAC LC-MS/MS, NHU5 probe, at 5 µM, hits give low values.
A further assay deals with TPP2. The note with it: HEK293T in situ, ABPP-SILAC LC-MS/MS, NHU5 probe, at 5 µM, hits give low values.
In the next assay the test system is ABHD12. The note with it: HEK293T in situ, ABPP-SILAC LC-MS/MS, NHU5 probe, at 5 µM, hits give low values.
The next assay has as its system ABHD6. To be noted: HEK293T in situ, ABPP-SILAC LC-MS/MS, NHU5 probe, at 5 µM, hits give low values.
The target of assay [2] is Acylamino-acid-releasing enzyme (Homo sapiens) (UniProt P13798). To be noted: HEK293T in situ, ABPP-SILAC LC-MS/MS, NHU5 probe; APEH; at 5 µM; hits give low values.
Sequence of Acylamino-acid-releasing enzyme (Homo sapiens) (P13798 whole entry, looked up): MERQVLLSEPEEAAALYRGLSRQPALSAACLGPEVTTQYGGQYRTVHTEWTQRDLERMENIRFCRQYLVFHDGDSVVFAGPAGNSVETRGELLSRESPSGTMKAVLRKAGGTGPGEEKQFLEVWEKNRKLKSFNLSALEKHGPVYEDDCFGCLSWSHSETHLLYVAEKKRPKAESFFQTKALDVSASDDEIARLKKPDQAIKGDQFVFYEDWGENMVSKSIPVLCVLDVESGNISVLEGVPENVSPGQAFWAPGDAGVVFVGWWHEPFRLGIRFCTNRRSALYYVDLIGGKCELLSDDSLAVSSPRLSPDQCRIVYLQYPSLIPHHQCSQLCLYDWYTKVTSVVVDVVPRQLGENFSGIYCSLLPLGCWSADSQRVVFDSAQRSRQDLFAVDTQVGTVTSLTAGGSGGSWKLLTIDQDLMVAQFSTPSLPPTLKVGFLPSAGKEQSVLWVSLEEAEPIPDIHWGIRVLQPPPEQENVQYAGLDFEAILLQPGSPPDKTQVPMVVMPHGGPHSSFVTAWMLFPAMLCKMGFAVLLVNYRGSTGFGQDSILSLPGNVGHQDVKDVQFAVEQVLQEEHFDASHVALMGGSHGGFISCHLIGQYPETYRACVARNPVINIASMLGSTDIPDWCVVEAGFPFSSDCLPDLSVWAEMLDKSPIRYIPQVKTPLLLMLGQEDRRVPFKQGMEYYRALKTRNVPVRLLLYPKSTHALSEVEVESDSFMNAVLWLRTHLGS
The test system of another assay is PLA2G4A. The note with it: HEK293T in situ, ABPP-SILAC LC-MS/MS, NHU5 probe, at 5 µM, hits give low values.
The target in assay [3] is Acyl-protein thioesterase 2 (Homo sapiens) (UniProt O95372). The note with it: HEK293T in situ, ABPP-SILAC LC-MS/MS, NHU5 probe; LYPLA2; at 5 µM; hits give low values.
Sequence of Acyl-protein thioesterase 2 (Homo sapiens) (O95372 whole entry, looked up): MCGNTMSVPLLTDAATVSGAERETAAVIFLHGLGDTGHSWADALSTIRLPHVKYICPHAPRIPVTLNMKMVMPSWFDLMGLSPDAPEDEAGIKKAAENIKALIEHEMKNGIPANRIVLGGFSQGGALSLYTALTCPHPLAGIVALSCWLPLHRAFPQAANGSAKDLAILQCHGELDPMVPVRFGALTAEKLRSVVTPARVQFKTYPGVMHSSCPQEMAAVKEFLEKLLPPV
A further assay has as its system PNPLA6. The note with it: HEK293T in situ, ABPP-SILAC LC-MS/MS, NHU5 probe, at 5 µM, hits give low values.
A further assay concerns ESD. The note with it: HEK293T in situ, ABPP-SILAC LC-MS/MS, NHU5 probe, at 5 µM, hits give low values.
In a further assay the test system is ABHD10. The note with it: HEK293T in situ, ABPP-SILAC LC-MS/MS, NHU5 probe, at 5 µM, hits give low values.
In the next assay the test system is CTSA. To be noted: HEK293T in situ, ABPP-SILAC LC-MS/MS, NHU5 probe, at 5 µM, hits give low values.
A further assay has as its system LYPLAL1. To be noted: HEK293T in situ, ABPP-SILAC LC-MS/MS, NHU5 probe, at 5 µM, hits give low values.
The target in assay [4] is Dipeptidyl peptidase 9 (Homo sapiens) (UniProt Q86TI2). To be noted: HEK293T in situ, ABPP-SILAC LC-MS/MS, NHU5 probe; DPP9; at 5 µM; hits give low values.
Sequence of Dipeptidyl peptidase 9 (Homo sapiens) (Q86TI2 whole entry, looked up): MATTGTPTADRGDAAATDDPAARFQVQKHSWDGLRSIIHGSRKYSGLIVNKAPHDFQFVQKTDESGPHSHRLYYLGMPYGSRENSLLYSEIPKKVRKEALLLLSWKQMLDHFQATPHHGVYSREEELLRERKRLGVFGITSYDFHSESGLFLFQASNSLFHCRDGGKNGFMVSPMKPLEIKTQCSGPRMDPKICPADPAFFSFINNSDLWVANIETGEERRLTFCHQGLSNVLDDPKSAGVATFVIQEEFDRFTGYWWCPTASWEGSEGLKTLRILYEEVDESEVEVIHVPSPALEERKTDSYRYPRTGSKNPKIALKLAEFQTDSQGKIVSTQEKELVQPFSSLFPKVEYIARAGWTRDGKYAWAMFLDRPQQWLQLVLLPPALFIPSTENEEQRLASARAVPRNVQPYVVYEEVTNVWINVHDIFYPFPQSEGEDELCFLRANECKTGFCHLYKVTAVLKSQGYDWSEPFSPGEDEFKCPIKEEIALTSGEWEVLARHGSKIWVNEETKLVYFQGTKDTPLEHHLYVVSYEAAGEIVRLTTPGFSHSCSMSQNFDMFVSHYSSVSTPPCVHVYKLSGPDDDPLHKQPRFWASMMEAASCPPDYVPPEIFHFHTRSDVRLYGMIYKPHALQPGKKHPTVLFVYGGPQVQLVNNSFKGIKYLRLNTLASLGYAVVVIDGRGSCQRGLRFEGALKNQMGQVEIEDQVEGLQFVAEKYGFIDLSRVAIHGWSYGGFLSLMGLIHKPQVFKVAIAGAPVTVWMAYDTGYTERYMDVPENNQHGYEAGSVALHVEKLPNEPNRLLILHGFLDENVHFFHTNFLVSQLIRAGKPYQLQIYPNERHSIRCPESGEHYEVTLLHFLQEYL
The test system of another assay is MGLL. To be noted: HEK293T in situ, ABPP-SILAC LC-MS/MS, NHU5 probe, at 5 µM, hits give low values.
In the next assay the test system is AADACL1. To be noted: HEK293T in situ, ABPP-SILAC LC-MS/MS, NHU5 probe, at 5 µM, hits give low values.
Assay [5] has as its target Fatty acid synthase (Homo sapiens) (UniProt P49327). The note with it: HEK293T in situ, ABPP-SILAC LC-MS/MS, NHU5 probe; FASN; at 5 µM; hits give low values.
Assay [6] addresses Acyl-protein thioesterase 1 (Homo sapiens) (UniProt O75608). To be noted: HEK293T in situ, ABPP-SILAC LC-MS/MS, NHU5 probe; LYPLA1; at 5 µM; hits give low values.

Sequence of Acyl-protein thioesterase 1 (Homo sapiens) (O75608 whole entry, looked up): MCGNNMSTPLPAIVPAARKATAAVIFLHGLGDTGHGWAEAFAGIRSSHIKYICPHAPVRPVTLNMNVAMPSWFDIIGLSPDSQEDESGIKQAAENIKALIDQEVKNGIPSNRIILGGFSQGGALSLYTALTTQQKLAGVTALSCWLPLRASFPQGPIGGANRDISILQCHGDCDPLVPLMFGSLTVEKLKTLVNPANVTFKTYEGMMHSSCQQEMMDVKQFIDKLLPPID
Sequence of Fatty acid synthase (Homo sapiens) (P49327 whole entry, looked up): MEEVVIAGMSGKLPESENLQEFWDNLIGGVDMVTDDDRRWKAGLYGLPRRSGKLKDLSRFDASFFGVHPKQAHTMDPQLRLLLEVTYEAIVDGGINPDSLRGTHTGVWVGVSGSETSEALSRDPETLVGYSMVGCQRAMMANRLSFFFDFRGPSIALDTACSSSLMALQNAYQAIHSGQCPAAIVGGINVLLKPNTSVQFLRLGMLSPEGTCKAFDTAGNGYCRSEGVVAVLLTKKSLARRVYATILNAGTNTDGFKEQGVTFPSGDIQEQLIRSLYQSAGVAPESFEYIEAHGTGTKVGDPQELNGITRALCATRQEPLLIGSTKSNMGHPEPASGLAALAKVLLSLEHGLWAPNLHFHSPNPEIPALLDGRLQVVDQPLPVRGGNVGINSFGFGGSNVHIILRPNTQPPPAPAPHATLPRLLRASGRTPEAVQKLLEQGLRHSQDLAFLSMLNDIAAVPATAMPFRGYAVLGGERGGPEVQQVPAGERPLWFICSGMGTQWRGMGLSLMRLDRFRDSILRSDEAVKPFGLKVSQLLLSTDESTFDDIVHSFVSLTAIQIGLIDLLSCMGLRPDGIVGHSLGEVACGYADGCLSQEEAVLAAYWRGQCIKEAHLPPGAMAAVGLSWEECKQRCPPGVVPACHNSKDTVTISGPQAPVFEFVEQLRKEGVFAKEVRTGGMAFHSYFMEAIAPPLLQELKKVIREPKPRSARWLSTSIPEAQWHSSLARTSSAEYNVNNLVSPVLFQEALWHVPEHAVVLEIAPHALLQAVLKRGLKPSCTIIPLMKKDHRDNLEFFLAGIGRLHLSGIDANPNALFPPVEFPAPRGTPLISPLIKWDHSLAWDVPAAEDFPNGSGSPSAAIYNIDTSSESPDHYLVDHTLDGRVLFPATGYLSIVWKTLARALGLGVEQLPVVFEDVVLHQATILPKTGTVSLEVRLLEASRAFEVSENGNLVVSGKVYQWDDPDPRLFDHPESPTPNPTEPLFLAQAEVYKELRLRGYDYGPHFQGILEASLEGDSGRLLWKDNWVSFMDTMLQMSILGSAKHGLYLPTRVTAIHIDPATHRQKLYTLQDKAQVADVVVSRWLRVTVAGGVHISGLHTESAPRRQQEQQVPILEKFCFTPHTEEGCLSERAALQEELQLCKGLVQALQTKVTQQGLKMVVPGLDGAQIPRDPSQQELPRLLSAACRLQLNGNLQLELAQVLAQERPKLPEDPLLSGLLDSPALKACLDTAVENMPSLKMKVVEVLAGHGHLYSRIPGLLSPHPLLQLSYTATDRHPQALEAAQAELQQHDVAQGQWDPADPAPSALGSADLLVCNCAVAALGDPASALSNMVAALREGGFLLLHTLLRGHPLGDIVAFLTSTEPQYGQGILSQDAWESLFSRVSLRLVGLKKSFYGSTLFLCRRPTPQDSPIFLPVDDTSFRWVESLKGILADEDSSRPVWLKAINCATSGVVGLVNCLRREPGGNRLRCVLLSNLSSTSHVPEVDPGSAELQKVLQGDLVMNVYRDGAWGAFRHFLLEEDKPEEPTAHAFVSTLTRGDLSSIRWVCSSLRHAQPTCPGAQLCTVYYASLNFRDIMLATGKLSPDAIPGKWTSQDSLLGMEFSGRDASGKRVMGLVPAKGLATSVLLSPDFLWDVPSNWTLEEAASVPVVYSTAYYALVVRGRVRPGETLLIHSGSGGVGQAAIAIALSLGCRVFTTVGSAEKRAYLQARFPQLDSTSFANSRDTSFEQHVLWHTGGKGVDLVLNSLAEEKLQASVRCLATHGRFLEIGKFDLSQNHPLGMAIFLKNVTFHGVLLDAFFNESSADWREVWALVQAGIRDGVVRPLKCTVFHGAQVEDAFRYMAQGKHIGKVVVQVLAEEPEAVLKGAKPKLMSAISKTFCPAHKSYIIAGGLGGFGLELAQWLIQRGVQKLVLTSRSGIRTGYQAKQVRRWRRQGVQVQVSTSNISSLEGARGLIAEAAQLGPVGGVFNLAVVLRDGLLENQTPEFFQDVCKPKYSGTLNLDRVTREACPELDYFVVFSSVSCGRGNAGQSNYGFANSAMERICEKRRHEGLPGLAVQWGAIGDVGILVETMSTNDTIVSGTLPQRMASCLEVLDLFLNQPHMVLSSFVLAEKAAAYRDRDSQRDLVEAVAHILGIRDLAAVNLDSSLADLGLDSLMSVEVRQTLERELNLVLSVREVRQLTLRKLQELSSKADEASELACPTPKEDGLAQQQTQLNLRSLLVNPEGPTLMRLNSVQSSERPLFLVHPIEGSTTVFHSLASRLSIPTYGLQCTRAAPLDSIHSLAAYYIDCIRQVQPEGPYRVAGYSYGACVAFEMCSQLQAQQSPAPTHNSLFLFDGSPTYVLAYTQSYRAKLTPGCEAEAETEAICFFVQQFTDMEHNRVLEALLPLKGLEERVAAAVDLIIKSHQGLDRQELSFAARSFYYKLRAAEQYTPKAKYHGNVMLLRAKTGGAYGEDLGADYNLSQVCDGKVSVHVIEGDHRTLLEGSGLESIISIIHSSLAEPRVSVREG

Consider `COc1ccc(N2CCN(C(=O)c3cc4c(s3)-c3ccccc3S(=O)(=O)C4)CC2)cc1`, for which the remaining activity ratio (inhibitor/DMSO) in [1] was 1.13 (inactive); in the assay on PREP it was 1.05 (inactive); in the assay on TPP2 it was 1.1 (inactive); with ABHD12, 1.24 (inactive); in the assay with ABHD6, 1.37 (inactive); in [2] it was 1.23 (inactive). Moreover, the remaining activity ratio (inhibitor/DMSO) with PLA2G4A is 1.44 (inactive); in assay [3] it was 0.25; in the assay on PNPLA6, 1.27 (inactive); with ESD, 1.17 (inactive); in the assay on ABHD10 it was 1.21 (inactive); in the assay with CTSA, 1.29 (inactive). Besides, the remaining activity ratio (inhibitor/DMSO) with LYPLAL1 was 1.23 (inactive); in [4], 1.17 (inactive); in the assay on MGLL it was 0.94 (inactive); with AADACL1 it was 1.14 (inactive); in [5] it was 1.15 (inactive); in [6] it was 1.12 (inactive).
